Assay results: patent US20260166040A1 (AMGEN INC., priority 2022, published 2026)
Each block holds one compound with its values, some of them ahead of it.

Legend:
[1] = Phase I crossover study: plasma pharmacokinetics of sotorasib coadministered with rosuvastatin; format: in vivo, human; conditions: 960 mg sotorasib + 10 mg rosuvastatin, (range)
Method: Times of all PK samples were recorded to the nearest minute.

[2] = test system: phosphorylation of extracellular signal-regulated kinase (ERK); conditions: preclinical studies; cited from earlier work
[3] = Phase I crossover study: safety and tolerability (treatment-emergent adverse events); format: in vivo, human; conditions: for Treatment-emergent adverse events: healthy subjects; for Safety and tolerability: healthy male and female subjects
BCRP transporter = biological target: T1, BCRP transporter (Homo sapiens, UniProt Q9UNQ0); assay: In vitro BCRP transporter inhibition; format: in vitro ADME
T1 sequence (Q9UNQ0 1-655): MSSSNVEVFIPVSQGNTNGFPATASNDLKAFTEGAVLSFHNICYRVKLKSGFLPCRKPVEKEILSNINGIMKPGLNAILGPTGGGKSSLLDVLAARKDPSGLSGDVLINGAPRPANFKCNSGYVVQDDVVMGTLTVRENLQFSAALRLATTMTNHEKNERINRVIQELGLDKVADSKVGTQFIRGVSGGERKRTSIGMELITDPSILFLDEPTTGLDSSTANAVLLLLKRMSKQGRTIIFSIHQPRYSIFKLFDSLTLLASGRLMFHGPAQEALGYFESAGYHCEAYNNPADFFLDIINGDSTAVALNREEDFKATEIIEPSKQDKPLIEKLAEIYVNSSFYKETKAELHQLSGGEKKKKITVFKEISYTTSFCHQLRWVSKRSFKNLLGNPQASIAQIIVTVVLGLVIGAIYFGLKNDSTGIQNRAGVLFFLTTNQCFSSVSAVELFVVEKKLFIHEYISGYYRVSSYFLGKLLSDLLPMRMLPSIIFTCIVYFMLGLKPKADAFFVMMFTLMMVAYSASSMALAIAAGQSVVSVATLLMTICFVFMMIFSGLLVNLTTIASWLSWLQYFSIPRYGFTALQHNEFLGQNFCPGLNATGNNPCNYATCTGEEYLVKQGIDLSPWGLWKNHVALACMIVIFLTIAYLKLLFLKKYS

[4] = incidence !2%; cited from earlier work
clinical = conditions: human, in vivo, 10 mg
Method: On Day 1, rosuvastatin was administered as a single 10 mg dose (1×10 mg tablet).
All subjects fasted overnight (at least 10 hours) and refrained from consuming water for 1 hour prior to dosing. Subjects refrained from consuming water until 2 hours postdose, excluding the amount of water consumed at dosing, and fasted until 4 hours postdose. At all other times during the study, subjects may have consumed water ad libitum.
Blood samples for determination of rosuvastatin plasma concentrations and PK parameters were collected at hour 0 and at hours 0.5, 1, 2, 3, 4, 5, 6, 8, 10, 12, 24, 36, 48, 72, 96, and 120 hours postdose following administration of rosuvastatin on Days 1 and 6.
Pharmacokinetic analysis was carried out using actual dose administered (mg) and actual postdose blood sampling times. When an actual time was not recorded, it was set to missing and excluded from PK analysis and statistics with sponsor approval.
The parameters Cmax, time of the last quantifiable plasma concentration (tlast), and tmax were obtained directly from the concentration-time profiles. For multiple peaks, the highest postdose concentration was reported as Cmax. In the case that multiple peaks were of equal magnitude, the earliest tmax was reported.

[5] = cited from earlier work
[6] = test system: plasma proteins, mostly albumin; conditions: reversible, independent of plasma concentrations; cited from earlier work

Structure (SMILES): C=CC(=O)N1CCN(c2nc(=O)n(-c3c(C)ccnc3C(C)C)c3nc(-c4c(O)cccc4F)c(F)cc23)[C@@H](C)C1 (atropisomer, axis not shown) [sotorasib]
tlast [1]: 48.0 (24.0-48.0) h | Inhibition of ERK phosphorylation [2]: inhibited nearly all detectable phosphorylation | Treatment-emergent adverse events ([3]; 960 mg sotorasib coadministered with 10 mg rosuvastatin): No treatment-emergent adverse events | Safety and tolerability ([3]; rosuvastatin 10 mg in combination with sotorasib 960 mg, single oral doses): safe and well tolerated | BCRP inhibition (BCRP transporter): inhibitor of BCRP transporter in vitro

AUCinf (clinical; both): 36.2 (60.1) h*ng/mL | AUCinf GLSM (clinical; both): 36.2 ng·h/mL | AUClast GLSM (clinical; both): 33.2 ng·h/mL | Cmax (clinical; both): 3.80 (57.8) ng/mL | Cmax GLSM (clinical; both): 3.80 ng/mL | half-life (clinical; both): 13.8 h | tmax (clinical; both): 3 h | AUC(0-t) (clinical; both, po): 33.2 ng·h/mL | CL/F (clinical): 276 (60.1) L/h
Structure (SMILES): CC(C)c1nc(N(C)S(C)(=O)=O)nc(-c2ccc(F)cc2)c1/C=C/[C@@H](O)C[C@@H](O)CC(=O)O [rosuvastatin]
Most commonly reported adverse reactions [4]: headache, myalgia, abdominal pain, asthenia, and nausea | Treatment-emergent adverse events ([3]; 10 mg rosuvastatin alone): No treatment-emergent adverse events | Safety and tolerability ([3]; single oral dose rosuvastatin 10 mg alone): safe and well tolerated | Elimination half-life ([5]; human, in vivo): approximately 19 hours | Excreted in the feces (rosuvastatin and its metabolites) ([5]; human, in vivo): 90% | Radiolabeled dose recovered as metabolite ([5]; human, in vivo): approximately 10% | Cmax and AUC dose dependence ([5]; oral administration): increased in approximate proportion to dose | Absolute bioavailability ([5]; oral): approximately 20% | Bound to plasma proteins [6]: 88%
